{
  "source": "patent US20220313724A1",
  "about": "“COMPOSITIONS FOR INTRATUMORAL ADMINISTRATION AND RELATED METHODS” (HIGHLIGHT THERAPEUTICS, S.L., priority 2021, published 2022)",
  "key": {"[1]": {"test_system": "circulating cytokines or chemokines", "experiment": "Circulating cytokines or chemokines after intratumoral treatment", "assay_type": "in vivo, mouse", "conditions": "systemic"}, "MC38 or B16.OVA cells": {"test_system": "MC38 or B16.OVA cells", "experiment": "Single-agent repeated intratumoral injections in mice bearing bilateral tumors", "assay_type": "in vivo, mouse", "conditions": "injected tumor", "source_text": "Mouse tumor models. […] Female mice were used at 8-12 weeks of age and housed under specific pathogen-free conditions. The abscopal effect was studied by injecting 4×10^5 MC38 or B16.OVA cells subcutaneously (s.c.) into the right flank of C57BL/6 mice, whereas the left flank received an injection (s.c.) of 2×10^5 (MC38) or 1.25×10^5 (B16.OVA) cancer cells. When right tumors reached a tumor volume of 80-100 mm^3 (approximately one week after tumor inoculation), mice were randomized into different treatment groups.\nEvaluation of compounds. […] Control mice received intratumoral injections of PBS containing 5% glucose and/or 5% DMSO (vehicle) as indicated. Treated and untreated tumors were measured twice a week with calipers and the volume was calculated (length×width^2/2). […] When right and left tumors reached a diameter of 80-100 mm, mice were randomized to three groups. […] The control, untreated third-party tumor was untreated in all groups."}},
  "data": [
    {"smiles": "Cc1ccc2c(=O)c3cccc(CC(=O)O)c3oc2c1C", "note": "[DMXAA, 5,6-dimethylxanthenone-4-acetic acid]", "values": [
      {"measurement": "circulating type I Interferons, IL-12, IL-18, TNFalpha (TNFα) and CXCL10", "setting": "[1]", "value": "either did not cause systemic circulating elevations or only enhanced those observed upon treatment with BO-112"},
      {"measurement": "response of directly injected tumors to the treatment", "setting": "MC38 or B16.OVA cells", "value": "remarkably responded"}
    ]}
  ]
}
